{
  "source": "paper doi:10.1101/2025.04.25.650653",
  "about": "“Hierarchical small molecule inhibition of MYST acetyltransferases” (bioRxiv, 2025)",
  "key": {"[1]": {"test_system": "H3K18Ac (KAT3A/B)", "experiment": "Histone biomarker bottom-up LC-MS/MS, MCF-7", "type": "cell-based", "settings": "for Ratio, H3_18_26 K18ac: Replicates 1-3"}, "[2]": {"test_system": "H4K16Ac (KAT8)", "experiment": "Histone acetylation biomarker western blot, MCF-7", "type": "cell-based", "settings": "MCF-7 cells, 24 h, up to 30 μM", "protocol": "Target engagement was assessed using the panel of MYST-dependent histone acetylation biomarkers defined above. […] While WM-3835 has been applied to study KAT7, its initial publication alludes to its ability to inhibit both KAT6A/B and KAT7.[14], [43] […] All commercial vendors currently market WM-3835 as a KAT7 inhibitor.\nGeneral materials and methods\nTotal protein on western blots was […]\nmanufacturer's protocols.\nKAT capture and competitive chemoproteomic profiling […]\nfor 2 hours, then lyophilized.\n12 μL triethylamine. […] The beads were then magnetically separated […]\ndistinguish between tightly grouped and diffuse clusters, compactness was quantified by calculating the average pairwise Euclidean distance between all points within each cluster. Clusters with lower average"}},
  "note": "Where “and” joins values, the source holds several entries; their conditions need not be identical. Equal values may be shown once.",
  "data": [
    {"smiles": "COc1cccc(OC)c1S(=O)(=O)Nc1noc2cc(Cn3cccn3)cc(OC)c12", "note": "[PF-9363]", "values": [
      {"measurement": "Fold-change 0.1 v 30, H3_18_26 K18ac", "setting": "[1]; KAT marker KAT3A/B, PF-9363 0.1 v 30", "result": 1.39},
      {"measurement": "Average ratio, H3_18_26 K18ac", "setting": "[1]; KAT marker KAT3A/B, PF-9363 (0.1 mM)", "result": 0.0171},
      {"measurement": "Average ratio, H3_18_26 K18ac", "setting": "[1]; KAT marker KAT3A/B, PF-9363 (30 mM)", "result": 0.0123},
      {"measurement": "Ratio, H3_18_26 K18ac", "setting": "[1]; KAT marker KAT3A/B, dose 0.1", "result": "0.01666 and 0.01829 and 0.01641"},
      {"measurement": "Ratio, H3_18_26 K18ac", "setting": "[1]; KAT marker KAT3A/B, dose 1", "result": "0.01874 and 0.01672 and 0.01619"},
      {"measurement": "Ratio, H3_18_26 K18ac", "setting": "[1]; KAT marker KAT3A/B, dose 10", "result": "0.01831 and 0 and 0.01771"},
      {"measurement": "Ratio, H3_18_26 K18ac", "setting": "[1]; KAT marker KAT3A/B, dose 30", "result": "0 and 0.0193 and 0.01765"},
      {"measurement": "modulation of H3K18Ac", "setting": "[1]; MCF-7 cells, 24 h, any concentration (0.1-30 μM)", "result": "not found to modulate"},
      {"measurement": "inhibition of KAT8 (H4K16Ac)", "setting": "[2]", "result": "able to inhibit KAT8-catalyzed H4K16Ac"}
    ]}
  ]
}
